Experimental data reported in US20070048356A1, “Antimicrobial treatment of nonwoven materials for infection control” (priority 2005, published 2007).

Tests used:
[1] = tested on: C. Albicans (ATCC 10231); experiment: Dynamic Shake Flask (based on ASTM E 2149-01) on treated nonwoven; format: cell-based; conditions: Table 15, SMS
[2] = tested on: S. aureus; experiment: Zone of inhibition test to measure leaching; format: cell-based; conditions: AATCC 147 and ASTM E 2149-01 protocols
Protocol: First, according to the American Association of Textile Chemists and Colorists (AATCC)-147 test protocol, in a dry-leaching test, the antimicrobial treated material is placed in an agar plate seeded with a known amount of organism population on the plate surface. The plate is then incubated for about 18-24 hours at about 35° C. or 37° C.±2° C. Afterwards, the agar plate is assessed. Any leaching of the antimicrobial from the treated material would result in a zone of inhibited microbial growth. […] The piece of material was allowed to sit for 24 hours in solution and then the supernatant of the solution was extracted. […] About 100 micro liters (μL) of supernatant is added to a 8 mm well cut into a seeded agar plate and allow to dry. […] In summary, these protocols are performed by incubating an inoculated plate containing either the actual treated material or a solution that has been exposed to the treated material. This plate is then analyzed for zones of inhibition of organism growth to detect if the antimicrobial has leached off of the material or into the solution.

[3] = tested on: S. aureus (ATCC 6538); experiment: Dynamic Shake Flask (based on ASTM E 2149-01) on treated nonwoven; format: cell-based
[4] = tested on: broad spectrum of microorganism (gram positive and gram negative bacteria, and fungi: mold and yeast); conditions: within 15 minutes; baseline data of Tables 12-15
Protocol: The experimental procedure is based on ASTM E 2149-01. In brief, the test is performed by first adding a 2″×2″ sample of treated material to a flask containing 50 mL of a buffered-saline solution. The flask is then inoculated with the challenge organism (6.5-7 log10 total) and shaken through mechanical means for a designated period of time. At specified time points, a sample of the solution is then removed and plated. Lastly, the plate is incubated, examined for microbial growth, and the number of colony forming units counted. The log reduction in organisms is measured by comparing the growth on the experimental plate to control plates with no antimicrobial treatment.

[5] = tested on: A. Niger (ATCC 16404); experiment: Dynamic Shake Flask (based on ASTM E 2149-01) on treated nonwoven; format: cell-based; conditions: Table 14, Spunbond
Protocol: The test organisms are grown in 25 mL appropriate broth medium for about 24±2 hours at 37±2° C. in a wrist action shaker. The bacterial culture is then transferred by placing about 100 μL aliquot in 25 mL of broth and grown again for about 24±2 hours at 37±2° C. The organisms are then centrifuged and washed three times with phosphate buffered saline (PBS). The organisms are then suspended in PBS to obtain an inoculum of approximately 1×10^8 CFU/mL.
The test articles and control swatches are exposed to an ultraviolet light source for about 5-10 minutes per side before testing to assure that the swatches are sanitized prior to inoculation with the bacteria. The test materials are brought into contact with a known population of test bacteria from the inoculum for a specified period of time. A sample is then plated at the end of the exposure time to enumerate the surviving bacteria. The log10 reduction form the control material and the original population is calculated using the following formula: Log10 Control*−Log10 CFU/swatch Test Article=Log10 Reduction
[…] This buffer solution contains a chemical to de-activate or “neutralize” the antimicrobial agent to (a) stop the active agent from killing the organisms after the designated time period and (b) to prevent artifacts that may arise from exposing the microorganisms to the antimicrobial in solution rather than solely on the substrate. Because each chemical used as an antimicrobial agent is a little different (ie: cationic, nonionic, metal, etc), a different neutralizer was likely added in each case to shut off the antimicrobial at the desired end point of the experiment. […] The neutralizer employed may be selected from a list that is commonly used in the field. These include, non-ionic degtergents, Bisulphate, lecithin, leethen broth, thiosulfate, thioglycolate, and pH buffers, Method similar to those described in American Society for Testing and Materials, Standard Practices for Evaluating Inactivators of Antimicrobial Agents Used in Disinfectant, Sanitizer, Antiseptic, or Preserved Products, Amer. Soc. Testing Mat. E 1054-91 (1991) can be used.

[6] = tested on: Staphylococcus aureus (ATCC #27660); experiment: Rapid Germicidal Time Kill on treated gloves; format: cell-based; conditions: for log reduction of organisms: nitrile gloves, versus applied organisms estimated from latex control
From the text: In another aspect, to assess the efficacy of how rapidly the applied antimicrobial agents kill, we employed a direct contact, rapid germicidal test, developed by Kimberly-Clark Corporation. This test better simulates real world working situations in which microbes are transferred from a substrate to glove through direct contacts of short duration. Also this test permits us to assess whether contact with the surface of the glove at one position will quickly kill microbes, whereas the solution-based testing of the ASTM E 2149-01 protocol tends to provide multiple opportunities to contact and kill the microbes, which less realistic in practice.
We applied an inoculum of a known amount of microbes to the antimicrobial-treated surface of a glove. After about 3-6 minutes, we assessed the number of microbes that remained on the surface of the treated glove. […] The concentration of organisms on the surface is given at an initial Zero Time point and at 3, 5, and 30 minute points.
To test the antimicrobial efficacy of a polyhexamethylene biguanide, we treated nitrile examination gloves according to ASTM protocol 04-123409-106 “Rapid Germicidal Time Kill.” In brief, about 50 μL of an overnight culture of Staphylococcus aureus (ATCC #27660, 5×10^8CFU/mL) was applied to the glove material. After a total contact time of about 6 minutes the glove fabric was placed into a neutralizing buffer. Surviving organisms were extracted and diluted in Letheen broth. Aliquots were spread plated on Tryptic Soy Agar plates. Plates were incubated for 48 hours at 35° C. Following incubation the surviving organisms were counted and the colony forming units (CFU) were recorded. The reduction (log10) in surviving organisms from test material versus control fabric was calculated: Log10 CFU/swatch Control−Log10 CFU/swatch Test Article=Log10 Reduction.

[7] = Table 25, nitrile glove samples, Inoculum: 8.08

Polyhexamethylene biguanide [PHMB]
Dynamic Shake Flask Log10 Reduction ([1]; contact time 1 min): 1.28 Log10 | Dynamic Shake Flask Log10 Reduction ([1]; contact time 5 min): 2.38 Log10 | Dynamic Shake Flask Log10 Reduction ([1]; contact time 15 min): 3.48 Log10 | zones of inhibition / leaching from the treated substrate [2]: does not leach | Dynamic Shake Flask Log10 Reduction ([3]; Table 12, Meltblown, contact time 1 min): 4 Log10 | Dynamic Shake Flask Log10 Reduction ([3]; Table 12, Meltblown, contact time 5 min): 4 Log10 | Dynamic Shake Flask Log10 Reduction ([3]; Table 12, Meltblown, contact time 15 min): 4 Log10 | Dynamic Shake Flask Log10 Reduction ([3]; Table 12, SMS, contact time 1 min): 4 Log10 | Dynamic Shake Flask Log10 Reduction ([3]; Table 12, SMS, contact time 5 min): 4 Log10 | Dynamic Shake Flask Log10 Reduction ([3]; Table 12, SMS, contact time 15 min): 4 Log10 | Dynamic Shake Flask Log10 Reduction ([3]; Table 12, Spunbond, contact time 1 min): 4 Log10 | Dynamic Shake Flask Log10 Reduction ([3]; Table 12, Spunbond, contact time 5 min): 4 Log10 | Dynamic Shake Flask Log10 Reduction ([3]; Table 12, Spunbond, contact time 15 min): 4 Log10 | Dynamic Shake Flask Log10 Reduction ([3]; Table 16, Spunbond substrate, contact time 1 min, listed as 0.5% PHMB): 2.31 Log10 | Dynamic Shake Flask Log10 Reduction ([3]; Table 16, Spunbond substrate, contact time 1 min, listed as 1.0% PHMB): 4.00 Log10 | Dynamic Shake Flask Log10 Reduction ([3]; Table 16, Spunbond substrate, contact time 5 min): 4.00 Log10 | Dynamic Shake Flask Log10 Reduction ([3]; Table 16, Spunbond substrate, contact time 15 min): 4.00 Log10 | Dynamic Shake Flask Log10 Reduction ([3]; Table 17, Spunbond substrate, contact time 1 min): 0.18 Log10 | Dynamic Shake Flask Log10 Reduction ([3]; Table 17, Spunbond substrate, contact time 5 min): 0.33 Log10 | Dynamic Shake Flask Log10 Reduction ([3]; Table 17, Spunbond substrate, contact time 15 min): 0.58 Log10 | Dynamic Shake Flask Log10 Reduction ([3]; Table 19, SMS substrate, contact time 1 min): 0.18 Log10 | Dynamic Shake Flask Log10 Reduction ([3]; Table 19, SMS substrate, contact time 5 min): 0.33 Log10 | Dynamic Shake Flask Log10 Reduction ([3]; Table 19, SMS substrate, contact time 15 min): 0.58 Log10 | log10 reduction in colony forming units (CFU) [4]: ≥ 3 log10 | Dynamic Shake Flask Log10 Reduction ([5]; contact time 1 min): 4.00 Log10 | Dynamic Shake Flask Log10 Reduction ([5]; contact time 5 min): 4.00 Log10 | Dynamic Shake Flask Log10 Reduction ([5]; contact time 15 min): 4.00 Log10 | Result (Log10 Reduction, test material versus control) ([6]; Table 23, microtextured nitrile glove, total contact time about 6 minutes): >4.7 log10 | Result (Log10 Reduction versus PFE control) ([6]; Table 24, latex glove samples, total contact time about 6 minutes): >5.83 log10 | Result (log reduction of test glove compared to control glove) [6, 7]: >1.85 log | Result (log reduction of test glove compared to control glove), class [6, 7]: NR (No Reduction = less than 0.5 log reduction of test glove compared to control glove.) | log reduction of Staphylococcus aureus ATCC 27660 ([6]; microtextured nitrile glove, machine applied at 0.03 g/glove): greater than four | log reduction of organisms ([6]; hand sprayed with no heat): greater than one | log reduction of organisms ([6]; machine sprayed under heated conditions): greater than 5 log
